The record followed here is PubChem BioAssay (NCI).

Test systems include KM20L2 colon; SNB-78 CNS; LXFL 529 NSCLC; RXF-631 renal; XF 498 CNS; PC-3 prostate; MDA-MB-435; MCF7 breast; MDA-N.
Holding throughout (assay): NCI-60 cell line screen, 48 h

Each structure is given as a SMILES string. Several values for one entry are separate records, joined by “and”; a condition that tells them apart may be missing. Equal entries are not always repeated.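 48-hour exposure; five concentrations; linearly interpolated endpoints. Abbreviation: GI50, concentration required for 50% inhibition of growth. TGI marks complete inhibition of growth.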

For the compound `C1CC2=C(C1)C1=S(S2)SC2=C1CCC2`, the TGI with KM20L2 colon, with SNB-78 CNS, in the assay on LXFL 529 NSCLC and in the assay with RXF-631 renal was greater than 100 µM throughout.

In the case of `COC(=O)N/N=C(\C)C(CN(C)C)C(c1ccccc1)c1c(O)c2ccccc2oc1=O` (stereo not drawn), the TGI with KM20L2 colon, with SNB-78 CNS, in the assay on LXFL 529 NSCLC and in the assay on XF 498 CNS was greater than 100 µM in each case.

For `Nc1ccccc1C(=O)NC(=O)Nc1ccc(Oc2ncc(Br)cn2)c(Cl)c1`, the TGI was determined as 26.4 µM in the assay on SNB-78 CNS; 11.9 µM in the assay on LXFL 529 NSCLC; 10.7 µM with PC-3 prostate; 155 nM in the assay on MDA-MB-435; 30900 nM in the assay with MCF7 breast.

Take `CNCCCNc1c2ccccc2nc2cccc([N+](=O)[O-])c12`: the TGI in the assay with MDA-N was 3.09 nM; in the assay with KM20L2 colon, 0.0458 µM; with SNB-78 CNS, 0.0124 µM and 0.0131 µM; in the assay with LXFL 529 NSCLC it was 0.0288 µM; with PC-3 prostate, 0.00489 µM; in the assay on XF 498 CNS, 0.00724 µM. Moreover, the TGI with MDA-MB-435 was determined as 3.24 nM; in the assay with MCF7 breast, 89 nM.

As to `O=c1[nH]c(=O)n(C2CC(O)C(CO)O2)cc1COCC(F)(F)F` (stereo not drawn), the TGI in the assay on KM20L2 colon, with SNB-78 CNS, in the assay with LXFL 529 NSCLC, in the assay with RXF-631 renal and with XF 498 CNS was greater than 100 µM each time.

For the compound `C=Cc1c(C)c2cc3[nH]c(cc4nc(cc5nc(cc1[nH]2)C(C)=C5CCC(=O)N(CC)CC)C(CCC(=O)N(CC)CC)=C4C)c(C)c3C=C`, the TGI in the assay on KM20L2 colon, in the assay with SNB-78 CNS and in the assay with LXFL 529 NSCLC was greater than 100 µM each time.

`CC1(C)C(=O)C(=Cc2ccco2)C1=O`: the TGI with SNB-78 CNS, in the assay with LXFL 529 NSCLC, in the assay with RXF-631 renal and in the assay on XF 498 CNS was greater than 100 µM each time.

Turning to `COc1ccc2nc3cccc([N+](=O)[O-])c3c(NCCNCCN(C)C)c2c1`, the GI50 in the assay on MDA-N was 176 nM; with MDA-MB-435, 111 nM; with MCF7 breast, 19.2 nM. Further, the TGI in the assay with MDA-N stood at 502 nM; in the assay on PC-3 prostate, 0.293 µM; with MDA-MB-435, 248 nM; with MCF7 breast, 221 nM.

Consider `COc1cc2c3c(c1OC)C(=O)C=C3N(S(=O)(=O)c1ccc(C)cc1)CC2`, for which the TGI in the assay on KM20L2 colon, with SNB-78 CNS, in the assay with LXFL 529 NSCLC and in the assay with XF 498 CNS was greater than 100 µM throughout.

As to `O=C(NC(=O)c1cn(CCN2CCN(C(=O)NCCCCCCNC(=O)N3CCN(CCn4cc(C(=O)NC(=O)OCc5ccccc5)c(=O)[nH]c4=O)CC3)CC2)c(=O)[nH]c1=O)OCc1ccccc1`, the TGI in the assay on KM20L2 colon, with SNB-78 CNS and with RXF-631 renal was greater than 100 µM throughout.

As to `COC(=O)CC(=O)NCC1=CCC(=O)CC1`, the TGI with SNB-78 CNS, in the assay on LXFL 529 NSCLC and in the assay on XF 498 CNS was greater than 100 µM each time.

For `CC/C(Cc1ccccc1)=C(/c1ccc(O)cc1)c1ccc(OCCN2CCCC2)cc1`, the results for the GI50 with PC-3 prostate, in the assay with MDA-MB-435 and with MCF7 breast were 1790 nM, 1670 nM and 21.1 nM, respectively. Moreover, the values for the TGI with PC-3 prostate, with MDA-MB-435 and with MCF7 breast were 3.25 µM, 3230 nM and 2220 nM, respectively.

Take `CCN(CC)c1ccc(/C=N/NC(=O)CSc2nc3ccccc3c(=O)n2Cc2ccc(S(N)(=O)=O)cc2)c(O)c1`: the GI50 with PC-3 prostate is 829 nM; with MDA-MB-435, 2070 nM; with MCF7 breast it was 457 nM. Also, the TGI is greater than 100 µM in the assay on PC-3 prostate, greater than 100000 nM in the assay on MDA-MB-435 and greater than 100000 nM with MCF7 breast.

For `O=c1c2cccnc2ncn1CCCN1CCCC1`, the TGI with SNB-78 CNS and with XF 498 CNS was greater than 100 µM throughout.

On to `Cc1ccc(O)c(NC2=C(Cl)C(=O)N(Cc3ccccc3)C2=O)c1`, for which the figures for the GI50 in the assay with PC-3 prostate, in the assay with MDA-MB-435 and in the assay with MCF7 breast were 38700 nM, 28400 nM and 16200 nM, respectively. Also, the TGI in the assay on PC-3 prostate was greater than 100 µM; in the assay with MDA-MB-435, 76100 nM; with MCF7 breast, 48800 nM.

For `CCCCCCCCCCOC(=O)c1cc[n+](C)cc1`, the TGI with SNB-78 CNS is 34.4 µM; in the assay with LXFL 529 NSCLC it was 29.8 µM; in the assay with XF 498 CNS, 31.4 µM.

Turning to `NCCOc1ncccc1/C=C1\c2ccccc2-c2ccc([N+](=O)[O-])cc21`, the GI50 in the assay with PC-3 prostate is 177 nM; in the assay on MDA-MB-435, 161 nM; in the assay on MCF7 breast, less than 10.9 nM. Besides, the values for the TGI with PC-3 prostate, with MDA-MB-435 and in the assay on MCF7 breast were 1.11 µM, 362 nM and 409 nM, respectively.

In the case of `NC(CSC(c1ccccc1)(c1ccccc1)c1ccc(F)cc1)C(=O)O` (stereo not drawn), the GI50 with PC-3 prostate is 400 nM; in the assay with MDA-MB-435 it was 251 nM; in the assay with MCF7 breast, 344 nM. The results for the TGI in the assay on PC-3 prostate, with MDA-MB-435 and with MCF7 breast were greater than 35.9 µM, 654 nM and greater than 100000 nM, respectively.

In the case of `CCC[CH2][Sn]([CH2]CCC)([CH2]CCC)[O]C(=O)C(OC)c1ccccc1` (stereo not drawn), in the assay on KM20L2 colon, the GI50 was 49.1 nM and the TGI was found to be 0.171 µM.

Regarding `COc1ccc2[nH]c(C(=O)OCc3ccc4cccc(O)c4n3)cc2c1`, the GI50 in the assay with PC-3 prostate is 247 nM; with MDA-MB-435, 1520 nM; in the assay with MCF7 breast, 723 nM. Besides, the TGI in the assay on PC-3 prostate amounted to 1.32 µM; with MDA-MB-435, 3130 nM; with MCF7 breast, 2790 nM.

On to `O=C(CN(/C=C/C(=O)C(F)(F)F)c1ccccc1)c1ccc(Cl)cc1`, for which the GI50 with PC-3 prostate was 16100 nM; in the assay on MDA-MB-435 it was 19500 nM; with MCF7 breast, 24500 nM. Also, the results for the TGI in the assay on PC-3 prostate, in the assay with MDA-MB-435 and in the assay on MCF7 breast were 34.2 µM, 42600 nM and 67100 nM, respectively.

In the case of `NC(=S)N/N=C1/CN(c2ccc(Cl)c(Cl)c2)CC(=O)C1c1nc2ccccc2s1` (stereo not drawn), the TGI with KM20L2 colon, with SNB-78 CNS, with LXFL 529 NSCLC and with XF 498 CNS was greater than 100 µM each time.
